# Reference: patent publication US20090215884A1, “METHOD FOR WOUND HEALING” (priority 2005, published 2009)
# Experiments:
# [1] = tested on: epidermal keratinocytes; experiment: Keratinocyte extracellular matrix attachment; format: cell-based, human
# Procedure: Human, adult, epidermal keratinocytes, were purchased cryopreserved from Cascade Biologics Inc., Nottinghamshire, U.K. These cells (>500,000 viable cells/vial) were tested to be >70% viable, with the capacity to proliferate for at least 16 population doublings. The epidermal keratinocytes were cultured in serum-free, EpiLife® Medium (Cascade Biologics Inc.), supplemented with antibiotics (100 U/ml penicillin G sodium, […] streptomycin sulphate and 0.25 μg/ml amphotericin B) and EpiLife® Defined Growth Supplement (EDGS, consisting of purified bovine serum albumin, purified bovine transferring, hydrocortisone, recombinant human insulin-like growth factor type-1, prostaglandin E2 and recombinant human epidermal growth factor, Cascade Biologics Inc.). Epidermal keratinocytes cultures were maintained at 37° C., in a 5% CO2/95% air atmosphere, with the culture medium being changed every 2-3 days. Epidermal keratinocytes were used between 4-6 passages, for all experiments.
# Prior to use, the PEP005/DMSO stock solution was removed from 4° C. storage and warmed to room temperature. […]
# [2] = tested on: neutrophils; experiment: Cytokine production by PEP005-treated human neutrophils; format: cell-based; details: 6 h, supernatant
# Procedure: Cytokine production by PEP005-treated human cells Confluent cultures of Me10538 cells, keratinocytes, fibroblasts and neutrophils were incubated for 6 h in the absence or presence of PEP005 (1-100 ng/ml). The supernatants were harvested and analyzed for the presence of the following cytokines; TNF-α, IL-6 and IL-8 using a multiplex detection kit (Biosource International, Nivelles, Belgium). Units of detected proteins are pg/ml.
structure (smiles),measurement,setting,value
"C/C=C(/C)C(=O)O[C@H]1C(C)=C[C@]23C(=O)[C@@H](C=C(CO)[C@@H](O)[C@]12O)[C@H]1[C@@H](C[C@H]3C)C1(C)C [PEP005, ingenol-3-angelate]",epidermal keratinocyte attachment to type I collagen,"[1]; 0, 01-10 μg/ml PEP005",significant dose-dependent stimulation
same,epidermal keratinocyte attachment to plasma fibronectin,[1]; 1-μg/ml PEP005,trend towards a possible stimulation
same,IL-8,[2]; PEP005 1 ng/ml,7089 ± 1293 pg/mL
same,IL-8,[2]; PEP005 10 ng/ml,2241 ± 684 pg/mL
same,IL-8,[2]; PEP005 100 ng/ml,617 ± 52 pg/mL
